Source: patent publication US10744141B2, “Compositions and methods for treating cancer” (CASE WESTERN RESERVE UNIVERSITY, priority 2015, dated 2020)
Entries after “also recorded” stand apart in the source; their conditions may differ.

Tests used:
PP2A A-C dimer = PP2A A-C dimer (Homo sapiens, UniProt P30153+P67775); experiment: Radiolytic MS footprinting of PP2A A-C dimer with and without Compound 1
Source text: FIG. 2 is a model illustrating a visual representation of conformational changes in the PP2A A-C dimer as detected by radiolytic MS footprinting.
In order to elucidate the conformational changes in PP2A induced by SMAPs, we conducted structural mass spectrometry using radiolytic MS footprinting, a novel approach to probe the structural alterations of complexes such as PP2A. In these experiments, hydroxyl radicals are generated by an X-ray beam and oxidatively modify solvent-exposed amino acid side chains. Areas of a protein that are solvent inaccessible are spared these modifications and can be considered protected regions. Compared to the PP2A A-C dimer alone, addition of Compound 1 induced significant changes in solvent exposure in both the A and C subunits, indicating a conformational change (FIG. 2).

MOLT4 = experiment: Western blot time course of Y307 dephosphorylation and target engagement; type: cell-based; settings: MOLT4, increasing doses, various timepoints
Description: FIG. 3 illustrates a western blot analysis showing the kinetics of Y307 dephosphorylation and target engagement induced by Compound 1.
To evaluate the kinetics of Y307 dephosphorylation in the context of SMAP-mediated phosphatase activation, a time course study was conducted in the c-Myc driven T-ALL cell line MOLT4 with increasing doses of Compound 1 at various timepoints. PP2A has been well established to dephosphorylate the c-Myc proto-oncogene via dephosphorylation at Serine62 as a priming event for proteasome-mediated degradation, and prior work in the lab has validated Compound 1 mediates c-Myc proteolysis in in vitro models of c-Myc driven disease.

A549 = experiment: MTT assay with Compound 2/Dasatinib dose escalation combinations; type: cell-based; settings: dose escalation of both drugs in parallel
SRC = experiment: Time course phosphoproteomics with KSEA, SRC output; type: cell-based; settings: H358 cells, 17.5 μM DT-061, relative to DMSO at the same time-point
Description: (§1) H358 cells (ATCC) were cultured at 37° C. and 5% CO2 using RPMI media supplemented with 10% FBS and 0.5% penicillin/streptomycin. Per condition, 20 million cells were treated with the appropriate reagent and harvested at the stated time point. The following are the doses used: 17.5 μM DT-061, 1 μM AZD6244, and 0.25 μM MK2206. Cell pellets were then stored at −80° C. for short term. To extract proteins, the cells were pulse sonicated in 2% SDS buffer over ice and in the presence of protease and phosphatase inhibitors. Cysteine amino acid residues were then reduced and alkylated. 800 μg of protein per sample was then digested with Lys-C and Trypsin overnight at 37° C. […]
(§2) The phospho-enriched peptides were analyzed by LC-MS/MS using a LTQ-Orbitrap Velos mass spectrometer (Thermo Scientific, Calif.) equipped with a nanoAcquity™ Ultra-high pressure liquid chromatography system (Waters, Mass.). […] The LC-MS/MS raw files were imported and analyzed by the Rosetta Elucidator™ and Mascot programs to sequence the peptides and to identify the parent protein.
(§3) The R programming language was used to generate the data and heat maps. […] Kinase-substrate relationships were determined from the PhosphoSitePlus database. […] The fold change (FC) for each identified hit was then calculated by taking the median peptide intensity with treatment, divided by median peptide intensity with DMSO. […]

ERK = experiment: Time course phosphoproteomics with KSEA, ERK output; type: cell-based; settings: H358 cells, 17.5 μM DT-061, relative to DMSO at the same time-point
Description: as §1, §2, §3

[1] = C-terminal tail peptide [303-309]/C, residue Y or F
[2] = catalytic subunit peptide [178-186]/C, residue H179
[3] = peptide [198-217]/C, residue W200
[4] = peptide [200-217]/C, residue W209
[5] = peptide [200-223]/C, residue W200
[6] = peptide [200-223]/C, residue W209
[7] = peptide [200-223]/C, residue Y218
[8] = peptide [259-265]/C, residue Y265
[9] = peptide [279-286]/C, residue K283
[10] = peptide [279-286]/C, residue Y284

Sequence of PP2A A-C dimer (P30153 whole entry): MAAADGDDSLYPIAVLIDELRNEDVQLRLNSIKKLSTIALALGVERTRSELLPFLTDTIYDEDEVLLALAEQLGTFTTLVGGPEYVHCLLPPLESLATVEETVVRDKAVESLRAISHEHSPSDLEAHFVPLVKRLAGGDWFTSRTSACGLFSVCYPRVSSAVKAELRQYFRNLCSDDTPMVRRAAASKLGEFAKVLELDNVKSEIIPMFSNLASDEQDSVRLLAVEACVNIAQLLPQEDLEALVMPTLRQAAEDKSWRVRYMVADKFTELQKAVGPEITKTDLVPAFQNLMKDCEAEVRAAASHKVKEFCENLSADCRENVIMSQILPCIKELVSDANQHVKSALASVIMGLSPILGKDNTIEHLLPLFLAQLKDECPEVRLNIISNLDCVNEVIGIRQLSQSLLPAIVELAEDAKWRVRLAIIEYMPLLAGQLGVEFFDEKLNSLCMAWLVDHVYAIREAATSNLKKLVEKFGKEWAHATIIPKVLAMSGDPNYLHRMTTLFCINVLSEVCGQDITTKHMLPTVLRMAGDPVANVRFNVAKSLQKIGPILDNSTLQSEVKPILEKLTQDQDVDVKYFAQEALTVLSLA
Sequence of PP2A A-C dimer (P67775 whole entry): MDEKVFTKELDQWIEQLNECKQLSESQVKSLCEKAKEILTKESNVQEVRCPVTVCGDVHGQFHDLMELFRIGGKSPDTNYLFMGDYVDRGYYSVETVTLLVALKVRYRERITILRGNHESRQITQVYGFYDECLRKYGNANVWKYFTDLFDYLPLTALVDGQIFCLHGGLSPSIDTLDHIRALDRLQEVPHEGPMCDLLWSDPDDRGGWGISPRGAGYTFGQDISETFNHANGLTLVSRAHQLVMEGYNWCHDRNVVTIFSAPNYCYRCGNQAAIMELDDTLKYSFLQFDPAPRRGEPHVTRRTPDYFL

O=S(=O)(NC[C@H](O)CN1c2ccccc2CCc2ccccc21)c1ccc(OC(F)(F)F)cc1 [Compound 1]
Modification Rate, S^−1 + Ligand (PP2A A-C dimer; [1]): 0.56 ± 0.06 S^−1
Protection factor (PP2A A-C dimer; [1]): 12.0
decrease in solvent accessibility of the C terminal tail of the catalytic subunit (PP2A A-C dimer; Compound 1 treatment compared to control): 12 fold
Modification Rate, S^−1 + Ligand (PP2A A-C dimer; [2]): 2.4 ± 0.2 S^−1
Protection factor (PP2A A-C dimer; [2]): 7.2
Modification Rate, S^−1 + Ligand (PP2A A-C dimer; [3]): 1.8 ± 0.2 S^−1
Protection factor (PP2A A-C dimer; [3]): 6.2
Modification Rate, S^−1 + Ligand (PP2A A-C dimer; [4]): 2.3 ± 0.1 S^−1
Protection factor (PP2A A-C dimer; [4]): 4.6
Modification Rate, S^−1 + Ligand (PP2A A-C dimer; [5]): 1.4 ± 0.1 S^−1
Protection factor (PP2A A-C dimer; [5]): 4.6
Modification Rate, S^−1 + Ligand (PP2A A-C dimer; [6]): 2.1 ± 0.1 S^−1
Protection factor (PP2A A-C dimer; [6]): 5.4
Modification Rate, S^−1 + Ligand (PP2A A-C dimer; [7]): 0.31 ± 0.03 S^−1
Protection factor (PP2A A-C dimer; [7]): 0.9
Modification Rate, S^−1 + Ligand (PP2A A-C dimer; [8]): 0.12 ± 0.001 S^−1
Protection factor (PP2A A-C dimer; [8]): 4.8
Modification Rate, S^−1 + Ligand (PP2A A-C dimer; [9]): 0.14 ± 0.01 S^−1
Protection factor (PP2A A-C dimer; [9]): 15
Modification Rate, S^−1 + Ligand (PP2A A-C dimer; [10]): 0.13 ± 0.01 S^−1
Protection factor (PP2A A-C dimer; [10]): 6.1
Parp cleavage (MOLT4): resulting in Parp cleavage in a similar time-dependent manner
Y307 dephosphorylation kinetics (MOLT4): Y307 dephosphorylation occurs as a secondary event to the initial PP2A activation; also recorded: precede Y307 dephosphorylation
dephosphorylation of c-Myc (MOLT4): very rapid dephosphorylation of c-Myc

O=S(=O)(N[C@@H]1CCCC(N2c3ccccc3CCc3ccccc32)[C@H]1O)c1ccc(OC(F)(F)F)cc1 (stereo partly drawn) [Compound 2]
decrease of the IC50 (GI50) of Compound 2 (A549): nearly two-fold

O=S(=O)(N[C@@H]1CCC[C@H](N2c3ccccc3Oc3ccccc32)[C@H]1O)c1ccc(OC(F)(F)F)cc1 [DT-061]
SRC activity output (KSEA) (SRC): minimal changes in SRC output
ERK activity output (KSEA) (ERK): limited suppression of ERK output
